Laboratory results published in patent publication US10040838B2, “CRHR2 peptide agonists and uses thereof” (JANSSEN PHARMACEUTICA NV, priority 2008, dated 2018).
No end group written: not given here.

Columns and labels:
human CRHR2 [1] = target: T1, human CRHR2 (Homo sapiens, UniProt Q13324); test: cAMP assay in h-CRHR2 transfected SK-N-MC cells; assay type: cell-based; settings: for Log DR: Table 13, h-SCP control pA50 minus test compound pA50 within same assay batch; for nH: Table 12, Hill slope
T1 construct: expressed in transfected cells
T1 sequence (Q13324 1-411): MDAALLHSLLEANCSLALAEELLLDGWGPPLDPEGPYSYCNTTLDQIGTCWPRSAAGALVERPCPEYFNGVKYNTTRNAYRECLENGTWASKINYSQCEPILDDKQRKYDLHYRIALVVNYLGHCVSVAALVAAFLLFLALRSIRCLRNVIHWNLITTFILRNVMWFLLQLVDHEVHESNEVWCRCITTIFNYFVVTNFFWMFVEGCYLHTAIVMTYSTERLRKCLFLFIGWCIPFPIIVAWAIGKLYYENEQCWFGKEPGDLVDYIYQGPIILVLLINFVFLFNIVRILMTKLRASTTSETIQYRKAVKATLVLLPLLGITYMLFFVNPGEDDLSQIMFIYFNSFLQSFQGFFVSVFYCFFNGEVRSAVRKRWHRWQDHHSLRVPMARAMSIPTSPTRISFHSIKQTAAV
Outline: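 Intracellular cAMP was read by competition with [125I]-cAMP for an anti-cAMP antibody after HCl lysis of human CRHR2-transfected SK-N-MC cells. Cells had been exposed to peptide, 1 pM to 10 μM, for 60 min at 37 °C in IBMX (10 μM) buffer. A50 and pA50 came from Hill fits; Log DR was computed against h-SCP within each batch.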

human CRHR2 [2] = target: T1, human CRHR2; test: Radioligand binding, membranes of SK-N-MC cells transfected with human CRHR2, [125I]-anti-sauvagine-30
Experimental: The binding profile of h-SCP (SEQ ID NO:1) at CRHR2 was determined in radioligand binding studies in a membrane preparation of SK-N-MC cells stably transfected with human CRHR2 using [^125I]-anti-sauvagine-30 as the radiolabel. […] The solution was then homogenized with a Polytron tissue grinder at a setting of 10 and 7×3 s (Brinkmann Instruments, Westbury, N.Y.). The homogenate was centrifuged at 4° Celsius at 800×g for 5 min with the pellet being discarded. The supernatant was re-centrifuged at 26,892×g for 25 min at 4° Celsius with the final pellet being re-suspended in assay buffer. All binding assays were conducted in 96-well Multiscreen GF/B filter plates (Millipore, Billericay, Mass., U.S.A.) that were pre-soaked in assay buffer with 0.3% PEI for 1 hour. […] The bound radioactivity was separated by filtration using a Multiscreen Resist manifold (Millipore Corp., Billerica, Mass., U.S.A). The filters were washed three times with ice-cold PBS at pH 7.5 and radioactivity retained on the filters was quantified by its liquid scintillation measured by a TopCount counter (Packard BioScience, Boston, Mass., U.S.A). All experiments were performed in triplicate. Data from individual competition curves were expressed as the percentage of specific [^125I]-anti-sauvagine-30 or)[^125I]-([…])-sauvagine binding (B) within each experiment.

CRHR1 = target: T2, CRHR1 (Homo sapiens, UniProt P34998); test: Radioligand binding CRHR1 assay, [125I]-(Tyr0)-sauvagine; set-up: expressed in transfected cells; host or cells: cell membranes
T2 sequence (P34998 24-415): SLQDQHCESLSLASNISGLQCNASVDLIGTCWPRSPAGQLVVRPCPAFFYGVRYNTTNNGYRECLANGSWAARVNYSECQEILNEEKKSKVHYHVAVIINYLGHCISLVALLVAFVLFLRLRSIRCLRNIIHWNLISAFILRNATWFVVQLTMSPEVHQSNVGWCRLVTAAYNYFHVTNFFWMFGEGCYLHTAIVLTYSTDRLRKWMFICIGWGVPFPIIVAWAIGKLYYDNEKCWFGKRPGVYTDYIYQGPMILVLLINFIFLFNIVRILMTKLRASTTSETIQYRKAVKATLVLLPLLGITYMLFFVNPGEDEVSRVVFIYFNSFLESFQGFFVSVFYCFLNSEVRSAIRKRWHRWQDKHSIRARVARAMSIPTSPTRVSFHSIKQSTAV
Experimental: The solution was then homogenized with a Polytron tissue grinder at a setting of 10 and 7×3 s (Brinkmann Instruments, Westbury, N.Y.). The homogenate was centrifuged at 4° Celsius at 800×g for 5 min with the pellet being discarded. […] All binding assays were conducted in 96-well Multiscreen GF/B filter plates (Millipore, Billericay, Mass., U.S.A.) that were pre-soaked in assay buffer with 0.3% PEI for 1 hour. […] The bound radioactivity was separated by filtration using a Multiscreen Resist manifold (Millipore Corp., Billerica, Mass., U.S.A). The filters were washed three times with ice-cold PBS at pH 7.5 and radioactivity retained on the filters was quantified by its liquid scintillation measured by a TopCount counter (Packard BioScience, Boston, Mass., U.S.A). All experiments were performed in triplicate.

[3] = Table 15, slope of competition curve

Compound	Log DR (human CRHR2 [1])	further results
CC[C@H](C)[C@H](NC(=O)[C@@H](NC(=O)[C@H](CC(=O)O)NC(=O)[C@H](CC(C)C)NC(=O)[C@H](CC(C)C)NC(=O)[C@H](CC(C)C)NC(=O)[C@H](CCCNC(=N)N)NC(=O)[C@H](CC(N)=O)NC(=O)[C@H](CC(N)=O)NC(=O)[C@H](C)NC(=O)[C@H](C)NC(=O)[C@H](CCC(N)=O)NC(=O)[C@H](CCC(N)=O)NC(=O)[C@H](CCCCN)NC(=O)[C@H](CCC(=O)O)NC(=O)[C@H](CCCCN)NC(=O)[C@H](CCC(=O)O)NC(=O)[C@H](CCC(N)=O)NC(=O)[C@H](CCCCN)NC(=O)[C@H](CCC(=O)O)NC(=O)[C@@H](NC(=O)[C@H](CCC(=O)O)NC(=O)[C@@H](NC(=O)[C@H](CCSC)NC(=O)[C@H](CCCCN)NC(=O)[C@H](CCCNC(=N)N)NC(=O)[C@H](CC(C)C)NC(=O)[C@H](CC(C)C)NC(=O)[C@H](Cc1c[nH]cn1)NC(=O)[C@H](N)Cc1ccccc1)[C@@H](C)CC)[C@@H](C)CC)[C@@H](C)O)C(N)=O [SEQ ID NO: 118, FHLLRKMIEIEKQEKEKQQAANNRLLLDTI-NH2]		Kb (human CRHR2 [1]): 15.1 nM; Ki (human CRHR2 [2]): 16.6 nM; CRHR2 nH (human CRHR2 [2]; [3]): 1.15 ± 0.12; Ki (CRHR1): 1550 nM; CRHR1 nH (CRHR1; [3]): 1.00 ± 0.49
TKFTLSLDVPTNIMNLLFNIAKAKNCRAQAAANAHLMAQI-NH2 [SEQ ID NO: 27, TKFTLSLDVPTNIMNLLFNIAKAKNCRAQAAANAHLMAQI-NH2]	0.76	
TKFTLSLDVPTNIMNLLFNIAKAKNLCAQAAANAHLMAQI-NH2 [SEQ ID NO: 28, TKFTLSLDVPTNIMNLLFNIAKAKNLCAQAAANAHLMAQI-NH2]	0.16	
TKFTLSLDVPTNIMNLLFNIAKAKNLRACAAANAHLMAQI-NH2 [SEQ ID NO: 30, TKFTLSLDVPTNIMNLLFNIAKAKNLRACAAANAHLMAQI-NH2]	1.28	
TKFTLSLDVPTNIMNLLFNIAKAKNLRAQAAANAHLMAQI-OH [SEQ ID NO: 113, TKFTLSLDVPTNIMNLLFNIAKAKNLRAQAAANAHLMAQI, reference compound]		nH (human CRHR2 [1]): 1.07; fold less potent than the amidated parent peptide (human CRHR2 [1]; versus h-SCP (SEQ ID NO:1)): approximately 200 fold
TKFTLSLDVPTNIMNLLFNIAKAKNLRAQAACNAHLMAQI-NH2 [SEQ ID NO: 33, TKFTLSLDVPTNIMNLLFNIAKAKNLRAQAACNAHLMAQI-NH2]	0.45	
TKFTLSLDVPTNIMNLLFNIAKAKNLRAQACANAHLMAQI-NH2 [SEQ ID NO: 32, TKFTLSLDVPTNIMNLLFNIAKAKNLRAQACANAHLMAQI-NH2]	0.11	
TKFTLSLDVPTNIMNLLFNIAKAKNLRAQCAANAHLMAQI-NH2 [SEQ ID NO: 31, TKFTLSLDVPTNIMNLLFNIAKAKNLRAQCAANAHLMAQI-NH2]	1.61	
TKFTLSLDVPTNIMNLLFNIAKAKNLRCQAAANAHLMAQI-NH2 [SEQ ID NO: 29, TKFTLSLDVPTNIMNLLFNIAKAKNLRCQAAANAHLMAQI-NH2]	0.00	
TKFTLSLDVPTNIMNLLFNIAKCKNLRAQAAANAHLMAQI-NH2 [SEQ ID NO: 24, TKFTLSLDVPTNIMNLLFNIAKCKNLRAQAAANAHLMAQI-NH2]	0.74	
TKFTLSLDVPTNIMNLLFNICKAKNLRAQAAANAHLMAQI-NH2 [SEQ ID NO: 22, TKFTLSLDVPTNIMNLLFNICKAKNLRAQAAANAHLMAQI-NH2]	0.52	
TLSLDVPTNIMNLLFNIAKAKNLRAQAAANAHLMAQI-NH2 [SEQ ID NO: 108, TLSLDVPTNIMNLLFNIAKAKNLRAQAAANAHLMAQI-NH2]		nH (human CRHR2 [1]): 0.82

Continued, in another order:

Log DR (human CRHR2 [1])	Compound	further results
>3.19	TKFTLSLDVPTNIMNLLFNIAKAKNLRAQAAACAHLMAQI-NH2 [SEQ ID NO: 34, TKFTLSLDVPTNIMNLLFNIAKAKNLRAQAAACAHLMAQI-NH2]	
0.42	TKFTLSLDVPTNIMNLLFNIAKAKNLRAQAAANACLMAQI-NH2 [SEQ ID NO: 36, TKFTLSLDVPTNIMNLLFNIAKAKNLRAQAAANACLMAQI-NH2]	
1.05	TKFTLSLDVPTNIMNLLFNIAKAKNLRAQAAANAHCMAQI-NH2 [SEQ ID NO: 37, TKFTLSLDVPTNIMNLLFNIAKAKNLRAQAAANAHCMAQI-NH2]	
>2.95	TKFTLSLDVPTNIMNLLFNIAKAKNLRAQAAANAHLCAQI-NH2 [SEQ ID NO: 38, TKFTLSLDVPTNIMNLLFNIAKAKNLRAQAAANAHLCAQI-NH2]	
0.55	TKFTLSLDVPTNIMNLLFNIAKAKNLRAQAAANAHLMACI-NH2 [SEQ ID NO: 40, TKFTLSLDVPTNIMNLLFNIAKAKNLRAQAAANAHLMACI-NH2]	
2.07	TKFTLSLDVPTNIMNLLFNIAKAKNLRAQAAANAHLMAQC-NH2 [SEQ ID NO: 41, TKFTLSLDVPTNIMNLLFNIAKAKNLRAQAAANAHLMAQC-NH2]	
0.41	TKFTLSLDVPTNIMNLLFNIAKAKNLRAQAAANAHLMCQI-NH2 [SEQ ID NO: 39, TKFTLSLDVPTNIMNLLFNIAKAKNLRAQAAANAHLMCQI-NH2]	
0.70	TKFTLSLDVPTNIMNLLFNIAKAKNLRAQAAANCHLMAQI-NH2 [SEQ ID NO: 35, TKFTLSLDVPTNIMNLLFNIAKAKNLRAQAAANCHLMAQI-NH2]	
